{"source": "patent US20040265964A1", "about": "“Inducers of recombinant protein expression” (priority 2003, published 2004)", "format_in_all_cases": "cell-based, Chinese hamster", "key": {"[1]": {"system": "fluorescent reporter gene DsRed under the control of an EASE/CMV promoter in CHO cells", "test": "DsRed fluorescent reporter induction in CHO cell pools, 96 well format", "conditions": "for increase in DsRed expression per viable cell relative to control: 96 well, 6 days at 31° C.; for effectiveness as inducers of recombinant polypeptide production: compound screening, conditions not given", "protocol": "FIG. 1 is a graph of the Effect of Combinations of Compounds on Induction of Reporter Gene. Pools of cells that expressed a fluorescent marker protein, DsRed, under the control of an EASE/CMV promoter were cultured in 96 well plates at 35° C. for 6 days in the presence of the indicated amount of compound. The amount of fluorescence is plotted as a function of the concentration of compound. Compounds used for induction were hexanohydroxamic acid (HHA) (diamonds), Hexamethylenebisacetamide (HMBA) (squares) and both HHA+HMBA (triangles).\nUsing a construct that expressed DsRed under the control of a EASE/CMV promoter, including an adenoviral tripartite leader, as an indicator for expression, various compounds were assayed.\nPools of cells were selected in -GHT medium for presence of the expression vector, and then plated in a 96 well format in serum-free medium. Hydrocinnamic acid was added to test wells at 0.5 millimolar, the temperature decreased from 37° C. to 31° C., and culture continued for 6 days at the reduce temperature. DsRed fluorescence was assayed on a Wallac Victor2 multilabel microplate reader (PerkinElmer Life Sciences, Boston, Mass.)."}, "[2]": {"system": "CHO cell line that expresses a soluble form of the IL1-receptor type II", "test": "IL1RII expression by CHO cell line in shake flasks", "protocol": "The induction capacity of this compound was then tested in a different format on a different recombinant protein. […] Cells were grown in serum-free medium in shake flasks, hydrocinnamic acid was added to a concentration of 0.5 millimolar, and incubation continued at 31° C. for 9 to 10 days."}, "[3]": {"system": "CHO cell pools transfected with an expression vector encoding an antibody against the IL4 receptor", "test": "Antibody expression by unamplified CHO cell pools, 96 well plates", "conditions": "for increase in antibody expression relative to control, compound used individually: single compound (HHA 10 micromolar, 3-phenylpropionohydroxamic acid 10 micromolar, HMBA 1 millimolar as in the combinations); for increase in antibody expression relative to control, compound used individually / increase in antibody expression relative to control: 4 days at 37° C.; for increase in antibody expression relative to control: 0.5 mM inducer (per example heading), average over experiments", "protocol": "In addition, CHO cell pools transfected with an expression vector encoding an antibody against the IL4 receptor were tested (see U.S. Pat. No. 5,717,072, incorporated by reference herein). Unamplified pools were plated in serum-free medium in 96 well plates and incubated with inducer for 4 days at 37° C."}, "[4]": {"system": "CHO cell that expresses a soluble form of a TNF receptor, TNFR:Fc", "test": "TNFR:Fc expression by CHO cells in shake flasks", "conditions": "7 days at a reduced temperature", "description": "Another cell line tested was a CHO cell that expresses a soluble form of a TNF receptor, TNFR:Fc (U.S. Pat. No. 5,605,690, incorporated by reference herein). […]"}, "[5]": {"system": "fluorescent reporter gene DsRed under the control of an EASE/CMV promoter in CHO cells", "test": "DsRed fluorescent reporter induction in CHO cell pools, 96 well format", "conditions": "6 days at 31° C."}, "[6]": {"conditions": "0.5 mM compound, average over experiments"}, "[7]": {"conditions": "0.5 millimolar compound, serum-free medium, 31° C. for 9 to 10 days"}, "[8]": {"conditions": "0.5 mM compound, serum-free medium"}}}
{"smiles": "Cc1ccc(CCC(=O)O)cc1", "note": "[3-(4-methylphenyl)propionic acid]", "values": [{"measurement": "increase in DsRed expression per viable cell relative to control", "setting": "[1]; [6]", "value": 70, "unit": "%"}, {"measurement": "increase in IL1RII expression relative to control", "setting": "[2]; [7]", "value": 15, "unit": "%"}]}
{"smiles": "O=C(CCc1ccccc1)NO", "note": "[3-phenylpropionohydroxamic acid]", "values": [{"measurement": "increase in antibody expression relative to control, compound used individually", "setting": "[3]", "value": "not a significant increase"}]}
{"smiles": "O=C(O)CCCc1ccccc1", "note": "[4-phenylbutyric acid]", "values": [{"measurement": "increase in DsRed expression per viable cell relative to control", "setting": "[1]; [6]", "value": 60, "unit": "%"}, {"measurement": "increase in IL1RII expression relative to control", "setting": "[2]; [7]", "value": 21, "unit": "%"}]}
{"smiles": "O=C(O)CCCCc1ccccc1", "note": "[5-phenylvaleric acid]", "values": [{"measurement": "increase in antibody expression on day 3", "setting": "[3]; 0.5 mM 5-phenylvaleric acid, 37° C., day 3", "value": "no increase"}, {"measurement": "increase in antibody expression relative to control", "setting": "[3]", "value": 40, "unit": "%"}, {"measurement": "increase in DsRed expression per viable cell relative to control", "setting": "[1]; [6]", "value": 40, "unit": "%"}, {"measurement": "increase in TNFR:Fc expression relative to control cells", "setting": "[4]; [8]", "value": 33, "unit": "%"}, {"measurement": "increase in IL1RII expression relative to control", "setting": "[2]; [7]", "value": 44, "unit": "%"}]}
{"smiles": "CCCCCC(=O)NO", "note": "[HHA, hexanohydroxamic acid]", "values": [{"measurement": "increase in antibody expression relative to control, compound used individually", "setting": "[3]", "value": "did not have a significant increase"}, {"measurement": "increase in TNFR:Fc expression relative to control cells", "setting": "[4]; 10 micromolar HHA", "value": 19, "unit": "%"}, {"measurement": "increase in TNFR:Fc expression relative to control cells", "setting": "[4]; 20 micromolar HHA", "value": 11, "unit": "%"}, {"measurement": "increase in IL1RII expression relative to control", "setting": "[2]; 10 micromolar HHA, 31° C. for 9 days", "value": 19, "unit": "%"}, {"measurement": "increase in DsRed expression relative to the control", "setting": "[5]; 10 micromolar HHA alone", "value": 48, "unit": "%"}]}
{"smiles": "CC(=O)NCCCCCCNC(C)=O", "note": "[HMBA, hexamethylene bisacetamide, reference compound]", "values": [{"measurement": "increase in antibody expression relative to control, compound used individually", "setting": "[3]", "value": "not a significant increase"}, {"measurement": "increase in TNFR:Fc expression relative to control cells", "setting": "[4]; 1.0 millimolar HMBA alone", "value": 14, "unit": "%"}, {"measurement": "increase in DsRed expression relative to the control", "setting": "[5]; 1 millimolar HMBA alone", "value": 20, "unit": "%"}]}
{"smiles": "CCCCNC(C)=O", "note": "[N-butylacetamide]", "values": [{"measurement": "increase in DsRed expression per viable cell relative to control", "setting": "[1]; 1.0 millimolar compound, average of 2 experiments", "value": 77, "unit": "%"}]}
{"smiles": "O=C(O)CCc1ccccc1", "note": "[hydrocinnamic acid]", "values": [{"measurement": "increase in antibody expression relative to control", "setting": "[3]", "value": 5, "unit": "%"}, {"measurement": "increase in DsRed expression per viable cell relative to control", "setting": "[1]; [6]", "value": 60, "unit": "%"}, {"measurement": "increase in TNFR:Fc expression relative to control cells", "setting": "[4]; [8]", "value": 20, "unit": "%"}, {"measurement": "increase in IL1RII expression relative to control", "setting": "[2]; [7]", "value": 22, "unit": "%"}]}
{"smiles": "CC(CC(=O)O)C(=O)O", "note": "(centres unmarked) [methylsuccinic acid, reference compound]", "values": [{"measurement": "effectiveness as inducers of recombinant polypeptide production", "setting": "[1]", "value": "ineffective"}]}
{"smiles": "O=C(O)CCCCCC(=O)O", "note": "[pimelic acid, reference compound]", "values": [{"measurement": "effectiveness as inducers of recombinant polypeptide production", "setting": "[1]", "value": "ineffective"}]}
{"smiles": "O=C(O)CC(O)(CC(=O)O)C(=O)[O-].[Na+]", "note": "[sodium dihydrogen citrate, reference compound]", "values": [{"measurement": "effectiveness as inducers of recombinant polypeptide production", "setting": "[1]", "value": "ineffective"}]}
